In ChEMBL document CHEMBL4011618, “Discovery of Potent, Selective Stem Cell Factor Receptor/Platelet Derived Growth Factor Receptor Alpha (c-KIT/PDGFRα) Dual Inhibitor for the Treatment of Imatinib-Resistant Gastrointestinal Stromal Tumors (GISTs)” (J Med Chem, 2017):

Key:
[1] = molecular target: T1, Platelet-derived growth factor receptor alpha (Homo sapiens, UniProt P16234); experiment: Inhibition of PDGFRalpha (unknown origin) using FAM-labeled peptide as substrate preincubated for 10 mins followed by substrate addition in presence of ATP by mobility shift assay
T1 sequence (P16234 whole entry): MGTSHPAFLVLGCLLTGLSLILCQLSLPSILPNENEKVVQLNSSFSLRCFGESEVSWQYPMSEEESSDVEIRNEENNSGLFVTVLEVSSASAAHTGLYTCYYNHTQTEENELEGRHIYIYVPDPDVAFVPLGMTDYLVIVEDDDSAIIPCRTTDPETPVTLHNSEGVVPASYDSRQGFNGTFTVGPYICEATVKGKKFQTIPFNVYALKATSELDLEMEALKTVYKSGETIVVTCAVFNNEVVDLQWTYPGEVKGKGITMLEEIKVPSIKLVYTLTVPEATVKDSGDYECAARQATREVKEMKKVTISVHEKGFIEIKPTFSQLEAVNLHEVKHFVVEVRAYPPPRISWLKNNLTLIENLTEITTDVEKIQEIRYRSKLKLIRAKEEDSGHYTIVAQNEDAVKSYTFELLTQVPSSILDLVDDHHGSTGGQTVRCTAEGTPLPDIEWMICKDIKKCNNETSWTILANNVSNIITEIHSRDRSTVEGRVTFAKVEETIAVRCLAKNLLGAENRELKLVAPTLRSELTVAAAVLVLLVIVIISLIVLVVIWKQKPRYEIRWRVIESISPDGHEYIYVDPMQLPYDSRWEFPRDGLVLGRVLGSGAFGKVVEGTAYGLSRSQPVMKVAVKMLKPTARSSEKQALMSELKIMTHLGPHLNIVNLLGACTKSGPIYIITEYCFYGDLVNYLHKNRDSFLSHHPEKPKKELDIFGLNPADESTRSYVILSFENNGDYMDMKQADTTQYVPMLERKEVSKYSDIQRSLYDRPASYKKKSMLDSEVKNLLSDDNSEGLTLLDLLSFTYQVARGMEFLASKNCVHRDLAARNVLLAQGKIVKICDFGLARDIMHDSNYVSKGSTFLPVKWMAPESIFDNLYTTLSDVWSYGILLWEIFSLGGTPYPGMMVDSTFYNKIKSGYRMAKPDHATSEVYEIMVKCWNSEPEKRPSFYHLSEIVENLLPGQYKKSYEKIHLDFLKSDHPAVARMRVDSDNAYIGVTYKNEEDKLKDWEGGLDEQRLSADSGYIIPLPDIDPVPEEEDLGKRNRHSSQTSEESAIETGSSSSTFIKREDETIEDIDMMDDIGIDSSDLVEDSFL

[2] = molecular target: Vascular endothelial growth factor receptor 2 (Homo sapiens, UniProt P35968)
Chain of Vascular endothelial growth factor receptor 2 (P35968 whole entry): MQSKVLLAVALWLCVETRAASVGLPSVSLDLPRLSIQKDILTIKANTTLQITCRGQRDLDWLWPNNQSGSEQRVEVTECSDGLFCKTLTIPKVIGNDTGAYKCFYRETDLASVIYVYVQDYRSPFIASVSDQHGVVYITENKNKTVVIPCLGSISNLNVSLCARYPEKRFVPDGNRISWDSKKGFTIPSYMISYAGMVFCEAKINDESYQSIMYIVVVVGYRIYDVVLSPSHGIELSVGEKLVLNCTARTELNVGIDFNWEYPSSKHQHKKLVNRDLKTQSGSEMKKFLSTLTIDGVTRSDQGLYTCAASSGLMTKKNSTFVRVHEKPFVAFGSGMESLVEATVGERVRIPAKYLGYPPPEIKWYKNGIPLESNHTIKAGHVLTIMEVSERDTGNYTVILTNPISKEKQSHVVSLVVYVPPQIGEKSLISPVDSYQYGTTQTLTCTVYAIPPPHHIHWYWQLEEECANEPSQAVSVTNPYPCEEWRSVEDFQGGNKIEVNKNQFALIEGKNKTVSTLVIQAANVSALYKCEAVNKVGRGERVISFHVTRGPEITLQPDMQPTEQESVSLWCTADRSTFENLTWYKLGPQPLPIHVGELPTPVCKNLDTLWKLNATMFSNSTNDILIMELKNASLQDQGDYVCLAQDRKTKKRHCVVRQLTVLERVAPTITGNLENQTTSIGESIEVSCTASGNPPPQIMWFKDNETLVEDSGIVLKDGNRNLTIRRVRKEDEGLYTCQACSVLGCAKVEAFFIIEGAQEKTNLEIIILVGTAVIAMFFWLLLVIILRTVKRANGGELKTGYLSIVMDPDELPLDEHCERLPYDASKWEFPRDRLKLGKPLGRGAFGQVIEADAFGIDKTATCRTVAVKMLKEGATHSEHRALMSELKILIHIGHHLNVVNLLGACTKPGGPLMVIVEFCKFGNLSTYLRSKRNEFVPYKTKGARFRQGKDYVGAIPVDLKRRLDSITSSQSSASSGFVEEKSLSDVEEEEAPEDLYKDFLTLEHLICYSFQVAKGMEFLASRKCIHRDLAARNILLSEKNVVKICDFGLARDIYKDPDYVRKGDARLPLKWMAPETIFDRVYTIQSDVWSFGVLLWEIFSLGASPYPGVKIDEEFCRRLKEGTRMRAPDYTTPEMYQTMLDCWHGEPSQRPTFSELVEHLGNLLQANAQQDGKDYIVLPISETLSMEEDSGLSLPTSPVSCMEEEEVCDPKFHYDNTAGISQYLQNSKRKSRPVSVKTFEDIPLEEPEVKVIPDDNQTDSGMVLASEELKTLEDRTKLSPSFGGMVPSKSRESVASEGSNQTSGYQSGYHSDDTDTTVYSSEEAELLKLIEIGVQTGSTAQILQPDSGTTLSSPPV
Description: Inhibition of VEGFR2 (unknown origin) using FAM-labeled peptide as substrate preincubated for 10 mins followed by substrate addition in presence of ATP by mobility shift assay

[3] = molecular target: T2, Mast/stem cell growth factor receptor Kit (Homo sapiens, UniProt P10721)
T2 sequence (P10721 whole entry): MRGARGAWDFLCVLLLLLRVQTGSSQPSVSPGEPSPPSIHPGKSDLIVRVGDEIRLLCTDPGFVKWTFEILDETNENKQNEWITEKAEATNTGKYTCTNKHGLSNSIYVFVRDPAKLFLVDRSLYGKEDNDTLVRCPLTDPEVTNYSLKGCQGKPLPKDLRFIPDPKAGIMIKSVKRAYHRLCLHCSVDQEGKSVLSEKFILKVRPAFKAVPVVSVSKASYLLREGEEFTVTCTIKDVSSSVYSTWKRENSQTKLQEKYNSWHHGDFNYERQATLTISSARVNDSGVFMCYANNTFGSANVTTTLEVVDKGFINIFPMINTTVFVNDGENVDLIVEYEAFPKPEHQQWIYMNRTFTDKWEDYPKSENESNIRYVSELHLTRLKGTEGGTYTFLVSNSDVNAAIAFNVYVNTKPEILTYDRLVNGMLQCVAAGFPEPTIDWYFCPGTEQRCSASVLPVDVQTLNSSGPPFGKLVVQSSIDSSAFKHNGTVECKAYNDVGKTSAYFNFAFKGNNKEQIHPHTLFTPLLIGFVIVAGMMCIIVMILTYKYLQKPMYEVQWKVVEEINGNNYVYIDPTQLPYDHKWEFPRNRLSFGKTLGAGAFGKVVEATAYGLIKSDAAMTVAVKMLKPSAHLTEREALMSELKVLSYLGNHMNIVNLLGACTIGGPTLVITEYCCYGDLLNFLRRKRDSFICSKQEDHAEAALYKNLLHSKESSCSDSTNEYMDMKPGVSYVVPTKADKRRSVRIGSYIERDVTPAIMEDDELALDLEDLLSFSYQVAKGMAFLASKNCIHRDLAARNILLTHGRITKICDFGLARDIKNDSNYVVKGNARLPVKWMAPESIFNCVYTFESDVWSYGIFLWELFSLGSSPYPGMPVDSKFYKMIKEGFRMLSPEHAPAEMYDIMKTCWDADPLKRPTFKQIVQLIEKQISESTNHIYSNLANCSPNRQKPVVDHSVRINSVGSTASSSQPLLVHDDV
Description: Inhibition of cKIT (unknown origin) using FAM-labeled peptide as substrate preincubated for 10 mins followed by substrate addition in presence of ATP by mobility shift assay

[4] = molecular target: T2, Mast/stem cell growth factor receptor Kit; remark: listed apart in the source
Description: Inhibition of TEL-fused cKIT (unknown origin) expressed in mouse BAF3 cells assessed as cell growth inhibition after 72 hrs by cell titer-glo assay

[5] = tested on: Mast/stem cell growth factor receptor Kit (Homo sapiens), P10721 [T670I]
Chain of Mast/stem cell growth factor receptor Kit (Homo sapiens), P10721 [T670I] (P10721 whole entry T670I): as the sequence (P10721 whole entry) above, with T670I counted along it
Description: Inhibition of TEL-fused cKIT T670I mutant (unknown origin) expressed in mouse BAF3 cells assessed as cell growth inhibition after 72 hrs by cell titer-glo assay

[6] = molecular target: T1, Platelet-derived growth factor receptor alpha
Description: Inhibition of TEL-fused PDGFRalpha (unknown origin) expressed in mouse BAF3 cells assessed as cell growth inhibition after 72 hrs by cell titer-glo assay

[7] = tested on: Platelet-derived growth factor receptor alpha (Homo sapiens), P16234 [T674I]
Chain of Platelet-derived growth factor receptor alpha (Homo sapiens), P16234 [T674I] (P16234 whole entry T674I): as the sequence (P16234 whole entry) above, with T674I counted along it
Description: Inhibition of TEL-fused PDGFRalpha T674I mutant (unknown origin) expressed in mouse BAF3 cells assessed as cell growth inhibition after 72 hrs by cell titer-glo assay

[8] = molecular target: Fibroblast growth factor receptor 1 (Homo sapiens, UniProt P11362); experiment: Inhibition of FGFR1 (unknown origin) using FAM-labeled peptide as substrate preincubated for 10 mins followed by substrate addition in presence of ATP by mobility shift assay
Chain of Fibroblast growth factor receptor 1 (P11362 whole entry): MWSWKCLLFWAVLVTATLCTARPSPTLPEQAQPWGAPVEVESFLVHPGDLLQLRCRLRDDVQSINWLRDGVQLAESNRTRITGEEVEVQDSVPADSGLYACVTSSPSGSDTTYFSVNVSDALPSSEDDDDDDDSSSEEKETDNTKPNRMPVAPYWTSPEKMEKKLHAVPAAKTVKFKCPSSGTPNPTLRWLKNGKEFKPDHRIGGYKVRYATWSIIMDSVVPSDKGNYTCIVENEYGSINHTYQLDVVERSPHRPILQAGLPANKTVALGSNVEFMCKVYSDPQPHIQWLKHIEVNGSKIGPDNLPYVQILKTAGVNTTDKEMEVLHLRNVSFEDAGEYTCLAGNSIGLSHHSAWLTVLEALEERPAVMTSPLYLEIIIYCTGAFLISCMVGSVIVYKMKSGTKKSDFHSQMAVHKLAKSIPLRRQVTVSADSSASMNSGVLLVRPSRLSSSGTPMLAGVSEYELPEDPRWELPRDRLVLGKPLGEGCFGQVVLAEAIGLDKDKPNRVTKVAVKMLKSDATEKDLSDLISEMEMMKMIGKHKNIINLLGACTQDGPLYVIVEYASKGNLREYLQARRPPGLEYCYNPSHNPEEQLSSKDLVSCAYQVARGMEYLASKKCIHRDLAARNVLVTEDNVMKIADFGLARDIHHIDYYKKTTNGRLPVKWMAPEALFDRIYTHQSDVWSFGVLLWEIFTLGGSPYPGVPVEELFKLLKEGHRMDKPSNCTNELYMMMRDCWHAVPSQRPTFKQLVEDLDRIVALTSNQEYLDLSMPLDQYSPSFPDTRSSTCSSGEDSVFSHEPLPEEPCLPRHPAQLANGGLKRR

IC50 [1] [nM]	IC50 [2] [nM]	IC50 [3] [nM]	GI50 [4] [nM]	GI50 [5] [nM]	GI50 [6] [nM]	GI50 [7] [nM]	IC50 [8] [nM]	SMILES
> 50000	> 50000	> 50000	> 10000	> 10000	465	> 10000		Cc1cccc(NC(=O)Nc2ccc(-c3ccnc4[nH]nc(C(F)(F)F)c34)cc2)c1
27	10500	1.4	3030	1780	10.4	3180		CCCCCCNC(=O)Nc1ccc(-c2ccnc3[nH]nc(C)c23)cc1
21400	> 50000	201						Cc1n[nH]c2nccc(-c3ccc(NC(=O)Nc4cccc(C#N)c4)cc3)c12
> 50000	> 50000						18300	Cc1cccc(NC(=O)Nc2ccc(C3CC(O)=Nc4[nH]nc(C)c43)cc2)c1 (centres undefined)
> 5000	> 50000	6770						CCc1cccc(NC(=O)Nc2ccc(-c3ccnc4[nH]nc(C(F)(F)F)c34)cc2)c1
4610	15900	22100						Cc1n[nH]c2nccc(-c3ccc(NC(=O)Nc4cccc(CN(C)C)c4)cc3)c12
135	10900	6.2						Cc1n[nH]c2nccc(-c3ccc(NC(=O)NCCCCc4ccccc4)cc3)c12
32	3360	3.7						CCc1cccc(NC(=O)Nc2ccc(-c3ccnc4[nH]nc(CO)c34)cc2)c1
> 50000	> 50000	46100						Cc1n[nH]c2nccc(-c3ccc(NC(=O)NCc4ccccc4)cc3)c12
1180	1860		> 10000	> 10000	204	> 10000	4640	Cc1ccc(F)c(NC(=O)Nc2ccc(-c3cc(O)nc4[nH]nc(C)c34)cc2)c1
24	3860	1.7	3020	1670	10.4	2050		Cc1n[nH]c2nccc(-c3ccc(NC(=O)NCCCc4ccccc4)cc3)c12
387	3500	51						Cc1n[nH]c2nccc(-c3ccc(NC(=O)NCc4ccco4)cc3)c12
4080	36900	6440						Cc1n[nH]c2nccc(-c3ccc(NC(=O)Nc4ccccc4N4CCOCC4)cc3)c12
157	1790	26						Cc1n[nH]c2nccc(-c3ccc(NC(=O)NCc4cccs4)cc3)c12
472	4080	78						Cc1n[nH]c2nccc(-c3ccc(NC(=O)NCc4ccccn4)cc3)c12
1780	3940	1950						Cc1ccc(N2CCN(C)CC2)c(NC(=O)Nc2ccc(-c3ccnc4[nH]nc(C)c34)cc2)c1
22	1840	1.9	83.3	217	10.4	1510		Cc1n[nH]c2nccc(-c3ccc(NC(=O)Nc4cnc5ccccc5c4)cc3)c12
15			88.7	37.1	10.4	104		Cc1ccc(F)c(NC(=O)Nc2ccc(-c3cccc4[nH]nc(N)c34)cc2)c1 [LINIFANIB]
65	5610	1830						Cc1ccc(NC(=O)Nc2ccc(-c3ccnc4[nH]nc(C)c34)cc2)cc1

IC50 [1] [nM]	IC50 [2] [nM]	IC50 [3] [nM]	GI50 [4] [nM]	GI50 [5] [nM]	GI50 [6] [nM]	GI50 [7] [nM]	IC50 [8] [nM]	SMILES
> 50000	> 50000	> 50000						Cc1n[nH]c2nccc(-c3ccc(NC(=O)NC4CCCCC4)cc3)c12
401	> 50000	20						Cc1n[nH]c2nccc(-c3ccc(NC(=O)Nc4ccccn4)cc3)c12
305	4320	10900						Cc1ccccc1NC(=O)Nc1ccc(-c2ccnc3[nH]nc(C)c23)cc1
87	4920	2.4	1070	1840	10.4	5000		Cc1cccc(NC(=O)Nc2ccc(-c3ccnc4[nH]nc(CO)c34)cc2)c1
560	1220						2260	Cc1cccc(NC(=O)Nc2ccc(-c3cc(O)nc4[nH]nc(C)c34)cc2)c1
262	6230	4790						Cc1n[nH]c2nccc(-c3ccc(NC(=O)Nc4cccc(F)c4)cc3)c12
313	3110	14						Cc1n[nH]c2nccc(-c3ccc(NC(=O)Nc4cccnc4)cc3)c12
182	4050	2400						Cc1n[nH]c2nccc(-c3ccc(NC(=O)Nc4cccc(Cl)c4)cc3)c12
411	2390	120						Cc1n[nH]c2nccc(-c3ccc(NC(=O)Nc4ccn[nH]4)cc3)c12
1120	8630	320						Cc1n[nH]c2nccc(-c3ccc(NC(=O)NCC(C)C)cc3)c12
83	6920	2.6						Cc1n[nH]c2nccc(-c3ccc(NC(=O)Nc4cccc(N(C)C)c4)cc3)c12
732	5000	318						Cc1n[nH]c2nccc(-c3ccc(NC(=O)NC4CCC4)cc3)c12
124	> 50000	20						Cc1n[nH]c2nccc(-c3ccc(NC(=O)Nc4ccc5ccccc5c4)cc3)c12
215	6240	19						Cc1n[nH]c2nccc(-c3ccc(NC(=O)Nc4cccc(N5CCN(C)CC5)c4)cc3)c12
1570	8010						42900	Cc1n[nH]c2nccc(-c3ccc(NC(=S)Nc4cccc(C(F)(F)F)c4)cc3)c12
1100	6820	2220						Cc1cc(N2CCN(C)CC2)ccc1NC(=O)Nc1ccc(-c2ccnc3[nH]nc(C)c23)cc1
1130	4520	553						Cc1n[nH]c2nccc(-c3ccc(NC(=O)NC4CC4)cc3)c12
127	3700	7.2						Cc1cc(NC(=O)Nc2ccc(-c3ccnc4[nH]nc(C)c34)cc2)ccc1N1CCN(C)CC1
137	3150						> 50000	Cc1n[nH]c2nccc(-c3ccc(NC(=O)Nc4cccc(Br)c4)cc3)c12

IC50 [1] [nM]	IC50 [2] [nM]	IC50 [3] [nM]	GI50 [4] [nM]	GI50 [5] [nM]	GI50 [6] [nM]	GI50 [7] [nM]	IC50 [8] [nM]	SMILES
164	> 50000	3.5						CCCCCNC(=O)Nc1ccc(-c2ccnc3[nH]nc(C)c23)cc1
928	4160	4580						Cc1n[nH]c2nccc(-c3ccc(NC(=O)Nc4ccccc4N4CCN(C)CC4)cc3)c12
576	6230	144	> 10000	> 10000	13.3	> 10000		Cc1n[nH]c2nccc(-c3ccc(NC(=O)NC4CCCC4)cc3)c12
176	5350	12						CCN(CC)c1ccc(NC(=O)Nc2ccc(-c3ccnc4[nH]nc(C)c34)cc2)cc1
> 50000	> 50000	21400						CCCNC(=O)Nc1ccc(-c2ccnc3[nH]nc(C)c23)cc1
1470	11400	1420						Cc1n[nH]c2nccc(-c3ccc(NC(=O)NC(C)(C)C)cc3)c12
22	1210	3.9						CCc1cccc(NC(=O)Nc2ccc(-c3ccnc4[nH]nc(C)c34)cc2)c1
> 50000	> 50000		> 10000	> 10000	4250	> 10000	33800	Cc1ccc(F)c(NC(=O)Nc2ccc(C3CC(O)=Nc4[nH]nc(C)c43)cc2)c1 (centres undefined)
309	9050	9.3						Cc1n[nH]c2nccc(-c3ccc(NC(=O)Nc4ccc(N(C)C)cc4)cc3)c12
97	> 50000	3.6						Cc1n[nH]c2nccc(-c3ccc(NC(=O)Nc4cccc5ccccc45)cc3)c12
> 50000	> 50000	38700						CCNC(=O)Nc1ccc(-c2ccnc3[nH]nc(C)c23)cc1
43900	> 50000	20600						CCCCNC(=O)Nc1ccc(-c2ccnc3[nH]nc(C)c23)cc1
136	42000	12						CCN(CC)c1cccc(NC(=O)Nc2ccc(-c3ccnc4[nH]nc(C)c34)cc2)c1
83	> 50000	8.7						Cc1n[nH]c2nccc(-c3ccc(NC(=O)NC4Cc5ccccc5C4)cc3)c12
82		3.7						Cc1n[nH]c2nccc(-c3ccc(NC(=O)NCCc4ccccc4)cc3)c12
87	4290						> 50000	Cc1ccc(F)c(NC(=O)Nc2ccc(-c3ccnc4[nH]nc(C)c34)cc2)c1
106	1920						> 50000	Cc1n[nH]c2nccc(-c3ccc(NC(=O)Nc4cccc(C(F)(F)F)c4)cc3)c12
1080	6240						20000	Cc1n[nH]c2nccc(-c3ccc(NC(=S)Nc4cccc(Br)c4)cc3)c12
18900	26200	397						Cc1ccc(N2CCOCC2)c(NC(=O)Nc2ccc(-c3ccnc4[nH]nc(C)c34)cc2)c1
